Reference: US8703727B2, “Nanotechnology formulation of poorly soluble compounds” (Aphios Corporation, priority 2010, dated 2014)
In brackets after ≈: the same amount, converted by molar mass. Like-named read-outs stand apart in the source and are kept apart here. Each block holds one compound with its values, some of them ahead of it.

Tests used:
[1] = Preliminary solubility experiments in methanol; type: physicochemical
Experimental: Samples were weighed into 20-mL scintillation vials and 10 mL of methanol pipetted into each vial. […] An additional 10 mL of methanol was added to each of these vials. Now sample 3 dissolved completely, but particles still remained in sample 5. An additional 20 mL of methanol was added to sample 5, but on sonication, the small quantity of particles still remained.

[2] = HPLC of old standard solutions stored at room temperature; type: physicochemical
[3] = Solubility of S4 and S5 in methanol and ethanol (saturated solution, HPLC); type: physicochemical; details: 25° C.; for solubility at 5 min: organic solvent or mixture, thermodynamic from solid
Experimental: HPLC Method • Column: Phenomenex Luna C18(2), 15-cm×4.6 mm. • Buffer Concentrate (BC): 100 mL Et3N×80 mL 85% H3PO4 to 1000 mL with water. • Mobile Phase B=250 mL ACN+10 mL of BC to 1000 mL with water. • Mobile Phase C=100% ACN • Isocratic Mixture: 60% Phase B and 40% Phase C. • Alternatively, use 55% Acetonitrile with 3-mL Buffer Concentrate/1000 mL • Flow=1.5 mL/min Temperature=30° C. Wavelength=330 nm Injection=20 μL
Procedure for Formation of a Saturated Solution • 1. Weigh in duplicate approximately 100 milligrams of each standard into 1.5 mL mini-centrifuge tubes. • 2. Add 1.00 mL of Methanol to a S4 tube and 1.00 mL of Ethanol to the other S4 tube. Add 1.00 mL of Methanol to a S5 tube and 1.00 mL of Ethanol to the other S5 tube. • 3. Shake all four tubes for 5 minutes at room temperature (25° C.). • 4. Centrifuge at 6000 rpm for 10 minutes. The supernatant should be a saturated solution. • 5. Assay the supernatants by HPLC. Use a 20/1000 dilution in methanol. The target absorbance is 0.40 AU. A reasonable absorbance range is 0.10 to 1.20. If the absorbance that is found is outside of this range, dilute appropriately to bring the absorbance close to 0.40.

[4] = Solubility of aminoflavone in DI water and 1% PVA (HPLC); type: physicochemical; details: for solubility at 5 min: thermodynamic from solid
Experimental: Procedure: • 1. Weigh 5-10 mg of Aminoflavone into two 20 mL scintillation vials. • 2. Pipette 10 mL of water into Vial A and 10 mL of 1% PVA into Vial B. • 3. Shake the vials gently for about 5 minutes. Then let stand for 30 minutes. • 4. Carefully withdraw 0.9 mL from each vial for HPLC Analysis • 5. Shake the samples again and transfer to 50 mL Centrifuge tubes. • 6. Centrifuge for 20 minutes at 2500 rpm • 7. Again carefully withdraw 0.9 mL from each for HPLC Analysis.
Shaking the Aminoflavone in either water or 1% Aqueous PVA results in a dispersion of small particles that are difficult to see. They are suspended in the solution. HPLC duplication will be very poor since the “solution” is not uniform suspension of different size particles.

[5] = Solubility of aminoflavone in Freon-22 / ethanol (BPN-06, BPN-07, BPN-08); type: physicochemical; details: 40 °C, organic solvent or mixture, thermodynamic from solid
Experimental: Three supercritical, critical or near critical fluid solubility experiments were conducted on the aminoflavone prodrug (NSC 686288). The experiments were conducted with 100% (neat) Freon-22 at 3,000 psig (BPN-06), and 40° C., 90% Freon-22/10% ethanol at 3,000 psig and 40° C. (BPN-07) and 80% Freon-22/20% ethanol at 3,000 psig and 40° C. (BPN-08). These supercritical, critical or near critical fluid and conditions were selected on the basis of previous experience.
A 5.0 mL sample loop was utilized and each collection vial contained 5.0 ml of the same liquid as the sample loop rinse. Methanol was used as the collection fluid and sample rinse in BPN-06; ethanol was utilized as the collection fluid and sample rinse in BPN-07 and BPN-08. Samples were collected after circulation for 60, 75, 90, 105 and 120 minutes; the sample loop was then flushed of CO2 (except BPN-06). The fractions were then analyzed by HPLC. Each solubility data point is the average of 5 measurements.

[6] = HPLC analysis for degradation after supercritical fluid particle size reduction; type: physicochemical; details: nitrogen 3,000 psig, 60 minutes, rapid depressurization
Experimental: Three nanoparticles experiments were conducted—two with surrogate compounds and one with aminoflavone prodrug (Sample 5). In general, the poorly water-soluble anticancer compound was first saturated with water by placement in the vapor generated by a 39° C. temperature water bath for 60 minutes. The water-saturated sample was then frozen in a −80° C. freezer for 60 minutes. The frozen particles were then placed in the chamber of the nanoparticles apparatus (FIG. 2) and contacted with nitrogen at 3,000 psig for 60 minutes to ensure maximum saturation of the hydrophobic anticancer compound by the SFS. The materials were then rapidly depressurized, discharging the chamber contents into a collection container. The experiments were conducted following Standard Operating Procedure SOP #APH-S0603 and Drawing #9706-001 Rev 2 in Appendix C.
Three samples in aluminum weigh boats with contents weight of 0.4 to 0.5 mg was provided. To obtain the assay solution, each boat was placed in a sonicator bath filled to a height of 3 mm with water. Ten milliliters of methanol was pipetted into the boat and the sonicator was turned on for 20 seconds. The yellow residue in the boat dissolved completely in less than 5 seconds. After sonication, the sample was drawn back into the 10 mL pipette and transferred to a 20 mL scintillation vial to await HPLC assay. […]

[7] = HPLC analysis of 0.45 micron filter filtrate of BPN-20 in 1% PVA; type: physicochemical
Experimental: Procedure: • 1. Write A, B, C, and D on each of four 0.45 micron 47 mm Nylon 66 filters with a soft pencil. • 2. Weigh each of the filters. • 3. Draw Methanol through Filter A and set on a paper towel to dry. • 4. Weigh about 10 mg of aminoflavone onto Filter B and get an accurate weight. • 5. Draw 100 mL of Methanol through Filter B and bring to 100 mL in a 100 mL vol flask • 6. Set Filter B aside to dry on a paper towel. • 7. Draw 20 mL of 1% PVA through Filter C and set on a paper towel to dry. • Save the Filtrate for HPLC Assay • 8. Draw 20 mL of BPN-20 yellow ppt through Filter D and set on a paper towel to dry. • Save the Filtrate for HPLC Assay • 9. Place all four filters in the vacuum oven for 1 hour at 60 C. Then weigh the filters. • 10. Draw 100 mL of Methanol through Filters C and D. Bring to 100 mL with Methanol. • 11. Dry, vacuum oven, and get an accurate weight on filters C and D.

[8] = cited from earlier work
[9] = molar-equivalent basis; cited from earlier work

- S = mg/100 mL (preliminary solubility in methanol) [1]: >163 mg/100 mL
- decomposition of old standard solution ([2]; methanol solution stored at room temperature on the laboratory bench): showed decomposition products
SMILES: CC1=C(/C=C/C(C)=C/C=C/C(C)=C/C(=O)Nc2ccc(O)cc2)C(C)(C)CCC1 [Sample 2, Fenretinide (4HPR)]

SMILES: C=CCNC1=C2C[C@@H](C)C[C@H](OC)[C@H](O)[C@@H](C)/C=C(\C)[C@H](OC(N)=O)[C@@H](OC)/C=C\C=C(/C)C(=O)NC(=CC1=O)C2=O [Sample 4, 17-Allylamino Demethoxygeldanamycin (17-AAG)]
- S = mg/100 mL (preliminary solubility in methanol) [1]: >220 mg/100 mL
- Solubility (mg/100 mL) ([3]; Ethanol): 1478 mg/100 mL
- Solubility (mg/100 mL) ([3]; Methanol): 4260 mg/100 mL
- solubility at 5 min ([3]; Ethanol): 1480 µg/mL (≈ 2520 µM)
- solubility at 5 min ([3]; Methanol): 4260 µg/mL (≈ 7270 µM)
- decomposition of old standard solution ([2]; methanol solution exposed to room light and temperature for several weeks): only tiny decomposition peaks

- S = mg/100 mL (preliminary solubility in methanol) [1]: >87 mg/100 mL
SMILES: CCCCCCCCCCCCCCC[C@H](O)[C@@H](N)CO [Sample 3, Safingol]

- S = mg/100 mL (preliminary solubility in methanol) [1]: 48 mg/100 mL
- solubility ([1]; organic solvent or mixture, thermodynamic from solid, read-out: measured solubility in methanol): 480 µg/mL (≈ 1500 µM)
- solubility at 5 min ([4]; 1% PVA in water, aqueous with cosolvent or surfactant or cyclodextrin, 1% PVA after centrifugation, average, read-out: average (actual) solubility): 0.22 µg/mL (≈ 0.687 µM)
- solubility at 5 min ([4]; 1% PVA in water, aqueous with cosolvent or surfactant or cyclodextrin, 1% PVA after centrifugation, read-out: Solubility): 0.2 µg/mL (≈ 0.624 µM)
- solubility at 5 min ([4]; 1% PVA in water, aqueous with cosolvent or surfactant or cyclodextrin, 1% PVA, after shaking, before centrifugation, read-out: Solubility): 14 µg/mL (≈ 43.7 µM)
- solubility at 5 min ([4]; 1% PVA in water, aqueous with cosolvent or surfactant or cyclodextrin, 1% PVA, before centrifugation, average, read-out: average (apparent) solubility): 12.1 µg/mL (≈ 37.6 µM)
- average (apparent) solubility ([4]; 1% PVA, before centrifugation, average): 12 µg/mL
- average solubility ([4]; DI water after centrifugation, average): 0.31 µg/mL
- solubility at 5 min ([4]; DI water, water, DI water after centrifugation, average, read-out: average solubility): 0.33 µg/mL (≈ 1.03 µM)
- solubility at 5 min ([4]; DI water, water, DI water after centrifugation, read-out: Solubility): 0.34 µg/mL (≈ 1.06 µM)
- solubility at 5 min ([4]; DI water, water, DI water, after shaking, before centrifugation, read-out: Solubility): 7.84 µg/mL (≈ 24.5 µM)
- solubility at 5 min ([4]; DI water, water, DI water, before centrifugation, average, read-out: average solubility): 10.7 µg/mL (≈ 33.3 µM)
- Solubility (mg/100 mL) ([3]; Ethanol): 240 mg/100 mL
- Solubility (mg/100 mL) ([3]; Methanol): 280 mg/100 mL
- solubility at 5 min ([3]; Ethanol): 240 µg/mL (≈ 749 µM)
- solubility at 5 min ([3]; Methanol): 280 µg/mL (≈ 874 µM)
- solubility ([5]; BPN-06: Freon-22 100 vol %, ethanol 0 vol %, 3,000 psig and 40° C.): 65 µg/mL (≈ 203 µM)
- solubility ([5]; BPN-07: Freon-22 90 vol %, ethanol 10 vol %, 3,000 psig and 40° C.): 108 µg/mL (≈ 337 µM)
- solubility ([5]; BPN-08: Freon-22 80 vol %, ethanol 20 vol %, 3,000 psig and 40° C.): 116 µg/mL (≈ 362 µM)
- product degradation of treated materials versus untreated controls (HPLC) [6]: did not indicate any product degradation
- solubility in 1% PVA [7]: essentially insoluble
SMILES: Cc1c(F)c(N)c2c(=O)cc(-c3ccc(N)c(F)c3)oc2c1F [Sample 5, Aminoflavone]
- solubility in DMSO ([8]; DMSO): readily soluble
- solubility ([8]; pH 4 and pH 7): 0.126 to 0.188 µg/mL
- aqueous solubility ([8]; pH 10 (glycine buffer)): 0.65 µg/mL (≈ 2.03 µM)
- toxicity of intravenous treatments versus prodrug NSC 710464D [9]: less toxic
